Test results taken from US11033607B2, “Peptides and methods for preventing ischemic tissue injury” (University Health Network, priority 2012, dated 2021).
Several values for one entry are separate records, joined by “and”; a condition that tells them apart may be missing. Equal entries are not always repeated.

How the values were obtained:
[1] = test system: isolated WT mice hearts; experiment: Ex vivo I/R injury, LVDP in presence of soluble AC inhibitor KH7 or transmembrane AC inhibitor Ddox
Protocol: Male, 10-12 week old, C57BI/6 mice were anesthesized with i.p ketamine (100 mg/kg)/xylazine (10 mg/kg)/heparin (1000 IU/kg), and the heart excised quickly, cannulated through the aorta, and perfused retrogradely with Kreb's Heinslet buffer in a Langendorff apparatus as previously described (Ban et al. 2008). […] A small plastic balloon connected to a pressure transducer was inflated inside the LV to measure LV end systolic (LVESP) and end diastolic pressure (LVEDP) obtained from computer analysis (AcqKnowledge 3.7.1. Biopack System, Goleta, Calif.). LVEDP was maintained at 4-8 mm Hg throughout the experiment. After 20 min of equilibration to allow the balloon to adjust inside the LV, hearts were perfused with buffer for 20 min, followed by 20 min perfusion with peptide of interest (FIG. 1a). Global ischemia was then generated by clamping inflow to the heart for 30 min, after which reperfusion was reinstated for 40 min. In the untreated control group, hearts were perfused for a total of 40 min prior to ischemia. LV developed pressure (LVDP) was calculated by subtracting LVEDP from LVESP. Functional recovery of LV function was calculated as LVDP at the end of reperfusion as a percentage of LVDP prior to ischemia.

[2] = test system: WT mice subjected to LAD ligation; experiment: Myocardial infarction by LAD coronary artery ligation after 14-day peptide infusion, infarct size by TTC; assay type: in vivo, mouse; conditions: 4 days post-MI, mean±SE
From the text: After 2 weeks of continuous peptide infusion, animals were re-anesthesized with i.p ketamine/xylazine and underwent permanent ligation of the proximal left anterior descending (LAD) coronary artery to generate an experimental myocardial infarction (MI), as previously described (Ohta et al. 2004), with the surgeon blinded to treatment groups. At day 4 post-MI, animals were sacrificed and hearts excised for measurement of infarct size (FIG. 1B). This timepoint allows accurate measurement of infarct area prior to onset of cardiac rupture events (Noyan-Ashraf et al. 2005)
Freshly excised hearts were washed twice in cold PBS to remove excess blood, and cut into 2 mm sections perpendicular to the long axis. The sections were incubated at 37° C. in 2% 2,3,5-triphenyltetrazolium chloride (TTC) for 15 min, after which they were washed with PBS and fixed in 4% paraformaldehyde for 1 h before image acquisition using a digital scanner. Image J software (NIH, USA) was used to measure infarct area (TTC unstained white area) and total left ventricle (LV) area. Measurements were performed by two independent investigators blinded to treatment groups, and percent infarct size was calculated as the average of both measurements (infarct area/total LV area×100%).

[3] = test system: HL-1 cells; experiment: cAMP assay in HL-1 atrial myocyte cell line; assay type: cell-based, mouse; conditions: HL-1 atrial cardiomyocyte cell line, 30 nM, 10 min, IBMX 250 uM pretreatment
Protocol: (§1) Neonatal mouse ventricular myocytes (FIG. 9A) and atrial HL-1 myocyte cell lines (FIG. 9B) were pretreated with 250 uM IBMX for 30 min followed by treatment with GLP-1(28-36) and SCRAM(28-36) (30 nM each) or IPE and Forsk (10 uM each) or bicarbonate (25 mM) for 10 min. Cells were then lysed for measurement of cytoplasmic cAMP levels. Data represent mean±SE (n=3; triplicate wells for each replicate). After 24 h serum-deprivation, cells were pre-treated with the phosphodiesterase inhibitor IBMX (250 uM) for 30 min, after which the peptide of interest and/or vehicle PBS was added to the media to a final concentration of 30 nM for GLP-1 peptides and Exendin-4, and 10 uM for Isoproterenol and Forskolin. After 10 min drug treatment, cells were lysed and total intracellular cAMP release was measured using an enzymatic immunoassay kit (Cayman Chemicals, Mich.) as per manufacturer's protocol.

[4] = test system: Akt, Erk1/2, CREB and eNOS; experiment: Western blots of heart lysates from pre-treated mice; assay type: in vivo, mouse; conditions: organs collected on day 18, pre-treated hearts
From the text: Organs were collected on day 18 as shown in the experimental model set out in FIG. 1B and Western blots of heart lysates were processed.

[5] = test system: mouse model of ischemic stroke; experiment: Mouse model of ischemic stroke after 28 days cerebral ventricle infusion
Protocol: Peptides corresponding to the C-terminal domain of GLP-1 as described herein including GLP-1(28-36)^amide are tested in a mouse model of ischemic stroke. GLP-1(28-36)^amide is infused via Alzet® osmotic mini pumps brain infusion kits, specialized for targeted infusion into cerebral ventricles. After 28 days of GLP-1(28-36)^amide infusion, stroke is generated, after which brain infarct sizes are determined by TTC staining.
Protein lysates from brain tissue are extracted and the expression of survival kinases is probed by Western blots.

[6] = test system: primary ventricular cardiomyoctyes isolated from neonatal WT mice; experiment: cAMP assay in neonatal mouse ventricular myocytes; assay type: cell-based; conditions: 30 nM, 10 min, IBMX 250 uM pretreatment, vs PBS or scrambled peptide
Protocol: as §1

[7] = test system: isolated perfused hearts of WT mice; experiment: LDH release in coronary effluents of isolated perfused hearts undergoing I/R injury; parameters: species or system mouse; conditions: pretreatment 6 nmol/L, vs untreated control
Protocol: To further ascertain the protective actions of GLP-1(28-36)^amide, LDH release was measured in coronary effluents from the isolated perfused hearts as an indicator of cellular necrosis and death. […] Pretreatment with the GLP-1(28-36)^amide peptide therefore helps prevent cell death following an ischemic event and is useful for the treatment or prevention of ischemic tissue injury and ischemic heart disease.

[8] = test system: primary human coronary artery smooth muscle cells (hCSMCs); experiment: cAMP assay (enzymatic immunoassay) in hCSMCs; assay type: cell-based
Protocol: After 24 h serum-deprivation, cells were pre-treated with the phosphodiesterase inhibitor IBMX (250 uM) for 30 min, after which the peptide of interest and/or vehicle PBS was added to the media to a final concentration of 30 nM for GLP-1 peptides and Exendin-4, and 10 uM for Isoproterenol and Forskolin. After 10 min drug treatment, cells were lysed and total intracellular cAMP release was measured using an enzymatic immunoassay kit (Cayman Chemicals, Mich.) as per manufacturer's protocol.

[9] = with sAC inhibitor KH7 (2.4 uM)
[10] = with tmAC inhibitor Ddox (2,5 dideoxyadenosine, 12 uM)
[11] = 14-day pre-infusion 18.5 pmol/kg/min
[12] = 14-day pre-infusion 3.5 pmol/kg/min

Row | Substance | LVDP at the end of reperfusion [1, 9] | LVDP at the end of reperfusion [1, 10] | % LV infarct size [2, 11] | % LV infarct size [2, 12] | intracellular cAMP release [3] | activation of Akt, Erk1/2, CREB and eNOS (Western blot of heart lysates) [4] | brain infarct size (TTC staining) ([5]; 28 days infusion into cerebral ventricles before stroke) | expression of survival kinases in brain tissue (Western blot) ([5]; mouse, in vivo) | cAMP response [6] | LDH release in coronary effluent [7] | intracellular cAMP, dose dependence [8] | cAMP release in presence of tmAC inhibitor Ddox ([8]; Ddox 25 uM) | cAMP release in presence of sAC inhibitor KH7 ([8]; KH7 25 uM) | increase in cAMP release ([8]; without AC inhibitor)
1 | H-AGKFWRILV-NH2 [SCRAM(28-36)^amide] | 36.4±5.2 mmHg | 37.6±5.3 mmHg | 32.4±1.8% | – | – | – | – | – | – | – | – | – | – | –
2 | H-EGTFTSDVSSYLEGQAAKEFIAWLVKGR-NH2 [GLP-1(9-36)^amide] | – | – | – | 26.1±1.4% | – | – | – | – | – | – | – | – | – | –
3 | H-FIAWLVKGR-NH2 [GLP-1(28-36)^amide] | 25.2±1.7 mmHg | 67.6±5.8 mmHg | 24.9±2.6% and 24.9±2.4% | – | no intracellular cAMP release | enhanced activation of Akt, Erk1/2, CREB and eNOS | smaller infarct sizes | upregulation of survival kinases | no cAMP response was detected | significantly lower concentration of LDH | dose-dependent increases in intracellular cAMP | did not prevent the increase in cAMP | abolished | 2 fold
4 | H-HAEGTFTSDVSSYLEGQAAKEFIAWLVKGR-NH2 [GLP-1(7-36)^amide] | 73.1±5.3 mmHg | 27.1±5.3 mmHg | – | 23.0±1.9% and 23.0% | – | – | – | – | – | – | – | – | – | –
